# According to patent US6242440A, “Synergistic compositions comprising an oxathiazine and a benzothiophene-2-carboxamide-S,S-dioxide” (Janssen Pharmaceutica N.V., priority 1997, dated 2001):
# Columns and labels:
# Trichoderma viride = test: poison plate assay, mycelial growth and sporulation; assay type: cell-based
# Experimental: (§1) The efficacy of the active ingredients against mycelial growth and sporulation of Aureobasidium pullulans, Aspergillus niger, Scierophoma entoxylina, Trichodenna viride, was determined in the poison plate assay. The required concentrations of the fungicide(s) were obtained by diluting the active ingredients (I), (II) or the combination of (I) and (II) in dimethyl sulfoxide (DMSO) at 800 times the final test concentration. The stock solutions in DMSO were pipetted into Petri-dishes. Malt extract agar (3%) was added aseptically and uniform distribution was obtained by shaking. Each plate was spot inoculated with a spore or mycelial suspension. After incubation at 22° C. and 70% relative humidity for a period long enough to allow complete growth of controls, diameters of colonies were measured. Relative activities were calculated by taking the absence of fungal growth (diameter 0 mm) as 100%. From the activity of the active ingredients alone, the expected activities E were calculated by using the so-called formula of Colby: (Colby, S. R. Weeds 1967, 15: 20-22), [formula]
# (§2) wherein X and Y express the relative activities obtained for each of the active ingredients. A synergistic effect can be acknowledged if the found activity exceeds calculated activity.
# (§3) Equal efficacy was observed whenever complete inhibition of fungal growth occurred by one of the active ingredients (I) or (II) alone. The compound of formula (I) used in the experiment was 3-benzo[b]-thien-2-yl)-5,6-dihydro-1,4,2-oxathiazine 4-oxide, i.e. compound (1). The compound of formula (II) used in the experiment was N-cyclohexyl-benzothiophene-2-carboxamide-S,S-dioxide, i.e. compound (2).
# Aureobasidium pullulans = test: as above; assay type: cell-based
# Experimental: as §1, §2, §3
# Aspergillus niger = test: as above; assay type: cell-based
# Experimental: as §1, §2, §3
# Sclerophoma entoxylina = test: as above; assay type: cell-based
# Experimental: as §1, §2, §3
# Aureobasidium = test: wood stick test (Scots Pine); assay type: cell-based, Aureobasidium pullulans; conditions: read-out: measured (relative) activity %
# Experimental: (§4) Oven-dried wood sticks (50×12×2 mm) of Scots Pine (Pinus sylvestris) were dipped during 3 hours in a methanol solution comprising a compound of formula (I), a compound of formula (II), or a combination of a compound of formula (I) and a compound of formula (II), and allowed to dry overnight in a sterile laminar air flow. In each Petri dish one stick was placed on culture medium, PDA PS (Potato Dextrose Agar containing 60 mg penicillin and 200 mg streptomycin), previously seeded with inoculum. Two drops of fungal or spore suspension were pipetted on the upper surface of the stick The Petri dishes were incubated at 22° C. and 70% relative humidity. The test was evaluated after sufficient growth of the fungus on the control sticks. The following score system was used:
# (§5) 0: sticks free of fungal growth
# (§6) 1: traces of growth on the stick
# (§7) 2: slight growth (5 to 25% of the surface covered)
# (§8) 3 : moderate growth (25 to 50% of the surface covered)
# (§9) 4: vigorous to maximum growth (more tha 50% covered)
# (§10) To calculate synergism results were converted to the next artificial activities:
# (§11) Yhe expected activities E were calculated by using the so-called formula of Colby: (Colby, S. R. Weeds 1967, 15: 20-22), [formula]
# as §2
# (§12) The compound of formula (I) used in the experiment was 3-benzo[b]-thien-2-yl)-5,6-dihydro-1,4,2-oxathiazine 4-oxide, i.e. compound (1). The compound of formula (II) used in the experiment was N-cyclohexyl-benzothiophene-2-carboxamide-S,S-dioxide, i.e. compound (2).
# Sclerophoma = test: wood stick test (Scots Pine); assay type: cell-based, Sclerophoma entoxylina
# Experimental: as §4, §5, §6, §7, §8, §9, §10, §11, §2, §12
# Aspergillus = test: wood stick test (Scots Pine); assay type: cell-based, Aspergillus niger
# Experimental: as §4, §5, §6, §7, §8, §9, §10, §11, §2, §12
compound,measurement,setting,value
"O=C(NC1CCCCC1)C1=Cc2ccccc2S1(=O)=O [compound (2), N-cyclohexyl-benzothiophene-2-carboxamide-S,S-dioxide]",activity measured,"Trichoderma viride; Exp 1, 5 days, (2) 2.5 mg/l",0%
same,growth,"Trichoderma viride; Exp 1, 5 days, (2) 2.5 mg/l",49 mm
same,activity measured,"Trichoderma viride; Exp 1, 5 days, (2) 5 mg/l",0%
same,growth,"Trichoderma viride; Exp 1, 5 days, (2) 5 mg/l",49 mm
same,activity measured,"Trichoderma viride; Exp 1, 5 days, (2) 10 mg/l",0%
same,growth,"Trichoderma viride; Exp 1, 5 days, (2) 10 mg/l",49 mm
same,activity measured,"Trichoderma viride; Exp 1, 5 days, (2) 20 mg/l",14%
same,growth,"Trichoderma viride; Exp 1, 5 days, (2) 20 mg/l",42 mm
same,activity measured,"Trichoderma viride; Exp 2, 7 days, (2) 2.5 mg/l",0%
same,growth,"Trichoderma viride; Exp 2, 7 days, (2) 2.5 mg/l",49 mm
same,activity measured,"Trichoderma viride; Exp 2, 7 days, (2) 5 mg/l",0%
same,growth,"Trichoderma viride; Exp 2, 7 days, (2) 5 mg/l",49 mm
same,activity measured,"Trichoderma viride; Exp 2, 7 days, (2) 10 mg/l",8%
same,growth,"Trichoderma viride; Exp 2, 7 days, (2) 10 mg/l",45 mm
same,activity measured,"Trichoderma viride; Exp 2, 7 days, (2) 20 mg/l",24%
same,growth,"Trichoderma viride; Exp 2, 7 days, (2) 20 mg/l",37 mm
same,activity measured,"Aureobasidium pullulans; Exp 1, 5 days, (2) 2.5 mg/l",8%
same,growth,"Aureobasidium pullulans; Exp 1, 5 days, (2) 2.5 mg/l",35 mm
same,activity measured,"Aureobasidium pullulans; Exp 1, 5 days, (2) 5 mg/l",16%
same,growth,"Aureobasidium pullulans; Exp 1, 5 days, (2) 5 mg/l",32 mm
same,activity measured,"Aureobasidium pullulans; Exp 1, 5 days, (2) 10 mg/l",37%
same,growth,"Aureobasidium pullulans; Exp 1, 5 days, (2) 10 mg/l",24 mm
same,activity measured,"Aureobasidium pullulans; Exp 1, 5 days, (2) 20 mg/l",53%
same,growth,"Aureobasidium pullulans; Exp 1, 5 days, (2) 20 mg/l",18 mm
same,activity measured,"Aureobasidium pullulans; Exp 2, 7 days, (2) 2.5 mg/l",2%
same,growth,"Aureobasidium pullulans; Exp 2, 7 days, (2) 2.5 mg/l",47 mm
same,activity measured,"Aureobasidium pullulans; Exp 2, 7 days, (2) 5 mg/l",6%
same,growth,"Aureobasidium pullulans; Exp 2, 7 days, (2) 5 mg/l",45 mm
same,activity measured,"Aureobasidium pullulans; Exp 2, 7 days, (2) 10 mg/l",8%
same,growth,"Aureobasidium pullulans; Exp 2, 7 days, (2) 10 mg/l",44 mm
same,activity measured,"Aureobasidium pullulans; Exp 2, 7 days, (2) 20 mg/l",23%
same,growth,"Aureobasidium pullulans; Exp 2, 7 days, (2) 20 mg/l",37 mm
same,activity measured,"Aspergillus niger; Exp 1, 5 days, (2) 2.5 mg/l",0%
same,growth,"Aspergillus niger; Exp 1, 5 days, (2) 2.5 mg/l",44 mm
same,activity measured,"Aspergillus niger; Exp 1, 5 days, (2) 5 mg/l",5%
same,growth,"Aspergillus niger; Exp 1, 5 days, (2) 5 mg/l",42 mm
same,activity measured,"Aspergillus niger; Exp 1, 5 days, (2) 10 mg/l",23%
same,growth,"Aspergillus niger; Exp 1, 5 days, (2) 10 mg/l",34 mm
same,activity measured,"Aspergillus niger; Exp 1, 5 days, (2) 20 mg/l",70%
same,growth,"Aspergillus niger; Exp 1, 5 days, (2) 20 mg/l",13 mm
same,activity measured,"Aspergillus niger; Exp 2, 7 days, (2) 2.5 mg/l",2%
same,growth,"Aspergillus niger; Exp 2, 7 days, (2) 2.5 mg/l",44 mm
same,activity measured,"Aspergillus niger; Exp 2, 7 days, (2) 5 mg/l",2%
same,growth,"Aspergillus niger; Exp 2, 7 days, (2) 5 mg/l",44 mm
same,activity measured,"Aspergillus niger; Exp 2, 7 days, (2) 10 mg/l",9%
same,growth,"Aspergillus niger; Exp 2, 7 days, (2) 10 mg/l",41 mm
same,activity measured,"Aspergillus niger; Exp 2, 7 days, (2) 20 mg/l",36%
same,growth,"Aspergillus niger; Exp 2, 7 days, (2) 20 mg/l",29 mm
same,activity measured,"Sclerophoma entoxylina; Exp 1, 5 days, (2) 2.5 mg/l",7%
same,growth,"Sclerophoma entoxylina; Exp 1, 5 days, (2) 2.5 mg/l",40 mm
same,activity measured,"Sclerophoma entoxylina; Exp 1, 5 days, (2) 5 mg/l",16%
same,growth,"Sclerophoma entoxylina; Exp 1, 5 days, (2) 5 mg/l",36 mm
same,activity measured,"Sclerophoma entoxylina; Exp 1, 5 days, (2) 10 mg/l",19%
same,growth,"Sclerophoma entoxylina; Exp 1, 5 days, (2) 10 mg/l",35 mm
same,activity measured,"Sclerophoma entoxylina; Exp 1, 5 days, (2) 20 mg/l",40%
same,growth,"Sclerophoma entoxylina; Exp 1, 5 days, (2) 20 mg/l",26 mm
same,activity measured,"Sclerophoma entoxylina; Exp 2, 7 days, (2) 2.5 mg/l",2%
same,growth,"Sclerophoma entoxylina; Exp 2, 7 days, (2) 2.5 mg/l",48 mm
same,activity measured,"Sclerophoma entoxylina; Exp 2, 7 days, (2) 5 mg/l",4%
same,growth,"Sclerophoma entoxylina; Exp 2, 7 days, (2) 5 mg/l",47 mm
same,activity measured,"Sclerophoma entoxylina; Exp 2, 7 days, (2) 10 mg/l",16%
same,growth,"Sclerophoma entoxylina; Exp 2, 7 days, (2) 10 mg/l",41 mm
same,activity measured,"Sclerophoma entoxylina; Exp 2, 7 days, (2) 20 mg/l",29%
same,growth,"Sclerophoma entoxylina; Exp 2, 7 days, (2) 20 mg/l",35 mm
same,activity at 200 ppm,Aureobasidium; (2) 200 ppm,0%
same,activity at 400 ppm,Aureobasidium; (2) 400 ppm,75%
same,activity at 800 ppm,Aureobasidium; (2) 800 ppm,95%
same,% overgrown of the sticks,Sclerophoma; (2) 200 ppm,100%
same,stick test scores,Sclerophoma; (2) 200 ppm,4 (vigorous to maximum growth (more tha 50% covered))
same,% overgrown of the sticks,Sclerophoma; (2) 400 ppm,100%
same,stick test scores,Sclerophoma; (2) 400 ppm,4 (vigorous to maximum growth (more tha 50% covered))
same,% overgrown of the sticks,Sclerophoma; (2) 800 ppm,25%
same,stick test scores,Sclerophoma; (2) 800 ppm,2 (slight growth (5 to 25% of the surface covered))
same,activity at 200 ppm,"Sclerophoma; Sclerophoma entoxylina, (2) 200 ppm, read-out: measured (relative) activity %",0%
same,activity at 400 ppm,"Sclerophoma; Sclerophoma entoxylina, (2) 400 ppm, read-out: measured (relative) activity %",0%
same,activity at 800 ppm,"Sclerophoma; Sclerophoma entoxylina, (2) 800 ppm, read-out: measured (relative) activity %",75%
same,% overgrown of the sticks,Aspergillus; (2) 200 ppm,100%
same,stick test scores,Aspergillus; (2) 200 ppm,4 (vigorous to maximum growth (more tha 50% covered))
same,% overgrown of the sticks,Aspergillus; (2) 400 ppm,100%
same,stick test scores,Aspergillus; (2) 400 ppm,4 (vigorous to maximum growth (more tha 50% covered))
same,% overgrown of the sticks,Aspergillus; (2) 800 ppm,100%
same,stick test scores,Aspergillus; (2) 800 ppm,4 (vigorous to maximum growth (more tha 50% covered))
same,activity at 200 ppm,"Aspergillus; Aspergillus, (2) 200 ppm, read-out: measured (relative) activity %",0%
same,activity at 400 ppm,"Aspergillus; Aspergillus, (2) 400 ppm, read-out: measured (relative) activity %",0%
same,activity at 800 ppm,"Aspergillus; Aspergillus, (2) 800 ppm, read-out: measured (relative) activity %",0%
